Test results from patent publication EP0584797A2, “Novel cephalosporin compounds and processes for the preparation thereof” (LUCKY LTD., priority 1992, dated 1994).
In brackets after ≈: the same amount, converted by molar mass.

Legend:
Experiment in all cases: minimal inhibitory concentration, two-fold agar dilution
Format in all cases: cell-based
[1] = system: Bacillus cereus ATCC 11778; settings: ATCC11778, Muller-Hinton agar, 37°C, 20 hours, read-out: MIC values against the standard strains
Description: (§1) These MIC values were taken by employing a two-fold dilution method: that is, two-fold serial dilutions of each of the test compounds were made and dispersed in a Muller-Hinton agar medium; 2µl of the standard test strain which had the 10⁷ CFU(Colony Forming Unit) per ml was inoculated on the medium; and these were incubated at 37°C for 20 hours.

[2] = system: Micrococcus luteus ATCC 9341; settings: ATCC9341, Muller-Hinton agar, 37°C, 20 hours, read-out: MIC values against the standard strains
Description: as §1

[3] = system: Pseudomonas aeruginosa ATCC 25619; settings: ATCC25619, Muller-Hinton agar, 37°C, 20 hours, read-out: MIC values against the standard strains
Description: as §1

[4] = system: Providencia rettgeri ATCC 9250; settings: ATCC9250, Muller-Hinton agar, 37°C, 20 hours, read-out: MIC values against the standard strains
Description: as §1

[5] = system: Streptococcus faecalis ATCC 29212; settings: Enterococcus faecalis, ATCC29212; Muller-Hinton agar; 37°C; 20 hours; read-out: MIC values against the standard strains
Description: as §1

[6] = system: Klebsiella pneumoniae ATCC 10031; settings: ATCC10031, Muller-Hinton agar, 37°C, 20 hours, read-out: MIC values against the standard strains
Description: as §1

[7] = system: Proteus vulgaris ATCC 6059; settings: ATCC6059, Muller-Hinton agar, 37°C, 20 hours, read-out: MIC values against the standard strains
Description: as §1

[8] = system: Citrobacter freundii ATCC 8090; settings: ATCC8090, Muller-Hinton agar, 37°C, 20 hours, read-out: MIC values against the standard strains
Description: as §1

[9] = system: Salmonella typhimurium ATCC 14028; settings: Salmonella enterica; Muller-Hinton agar; 37°C; 20 hours; read-out: MIC values against the standard strains
Description: as §1

[10] = system: Staphylococcus epidermidis ATCC 12228; settings: ATCC12228, Muller-Hinton agar, 37°C, 20 hours, read-out: MIC values against the standard strains
Description: as §1

[11] = system: Morganella morganii ATCC 8076h; settings: ATCC8076H, Muller-Hinton agar, 37°C, 20 hours, read-out: MIC values against the standard strains
Description: as §1

[12] = system: Shigella sonnei ATCC 11060; settings: ATCC11060, Muller-Hinton agar, 37°C, 20 hours, read-out: MIC values against the standard strains
Description: as §1

[13] = system: Shigella flexneri ATCC 11836; settings: ATCC11836, Muller-Hinton agar, 37°C, 20 hours, read-out: MIC values against the standard strains
Description: as §1

[14] = system: Enterobacter cloacae ATCC 27508; settings: ATCC27508, Muller-Hinton agar, 37°C, 20 hours, read-out: MIC values against the standard strains
Description: as §1

[15] = system: Enterobacter aerogenes ATCC 29751; settings: Klebsiella aerogenes, ATCC29751; Muller-Hinton agar; 37°C; 20 hours; read-out: MIC values against the standard strains
Description: as §1

[16] = system: Staphylococcus aureus ATCC 6538p; settings: ATCC6538P, Muller-Hinton agar, 37°C, 20 hours, read-out: MIC values against the standard strains
Description: as §1

[17] = system: Serratia marcescens ATCC 27117; settings: ATCC27117, Muller-Hinton agar, 37°C, 20 hours, read-out: MIC values against the standard strains
Description: as §1

[18] = system: Proteus mirabilis ATCC 25933; settings: ATCC25933, Muller-Hinton agar, 37°C, 20 hours, read-out: MIC values against the standard strains
Description: as §1

[19] = system: Acinetobacter calcoaceticus ATCC 15473; settings: ATCC15473, Muller-Hinton agar, 37°C, 20 hours, read-out: MIC values against the standard strains
Description: as §1

[20] = system: Pseudomonas aeruginosa ATCC 27853; settings: ATCC27853, Muller-Hinton agar, 37°C, 20 hours, read-out: MIC values against the standard strains
Description: as §1

[21] = system: Staphylococcus aureus ATCC 10537; settings: ATCC10537, Muller-Hinton agar, 37°C, 20 hours, read-out: MIC values against the standard strains
Description: as §1

[22] = system: Escherichia coli ATCC 25922; settings: ATCC25922, Muller-Hinton agar, 37°C, 20 hours, read-out: MIC values against the standard strains
Description: as §1

[23] = system: Pseudomonas aeruginosa ATCC 10145; settings: ATCC10145, Muller-Hinton agar, 37°C, 20 hours, read-out: MIC values against the standard strains
Description: as §1

[24] = system: Escherichia coli ATCC 10536; settings: ATCC10536, Muller-Hinton agar, 37°C, 20 hours, read-out: MIC values against the standard strains
Description: as §1

[25] = system: Bacillus megaterium ATCC 9885; settings: Priestia megaterium, ATCC9885; Muller-Hinton agar; 37°C; 20 hours; read-out: MIC values against the standard strains
Description: as §1

Structure (SMILES) | MIC [1] [µg/mL] | MIC [2] [µg/mL] | MIC [3] [µg/mL] | MIC [4] [µg/mL] | MIC [5] [µg/mL] | MIC [6] [µg/mL] | MIC [7] [µg/mL] | MIC [8] [µg/mL] | MIC [9] [µg/mL] | MIC [10] [µg/mL] | MIC [11] [µg/mL] | MIC [12] [µg/mL] | MIC [13] [µg/mL] | MIC [14] [µg/mL] | MIC [15] [µg/mL] | MIC [16] [µg/mL] | MIC [17] [µg/mL] | MIC [18] [µg/mL] | MIC [19] [µg/mL] | MIC [20] [µg/mL] | further results
CCO/N=C(\C(=O)N[C@@H]1C(=O)N2C(C(=O)[O-])=C(CSc3nc(N)c(C(=O)O)c[n+]3C)CS[C@H]12)c1csc(N)n1 [Example 25, 7-[(Z)-2-(2-aminothiazol-4-yl)-2-(ethoxyimino)acetamido]-3-(4-amino-5-carboxy-1-methylpyrimidinium-2-yl)thiomethyl-3-cephem-4-carboxylate] | 64 (≈ 108 µM) | 0.063 (≈ 0.106 µM) | 2 (≈ 3.36 µM) | ≤ 0.008 | > 128 | 0.016 (≈ 0.0269 µM) | 0.25 (≈ 0.42 µM) | 0.063 (≈ 0.106 µM) | 0.13 (≈ 0.219 µM) | 0.5 (≈ 0.841 µM) | ≤ 0.008 | 0.063 (≈ 0.106 µM) | 0.016 (≈ 0.0269 µM) | ≤ 0.008 | 1 (≈ 1.68 µM) | 1 (≈ 1.68 µM) | 0.5 (≈ 0.841 µM) | 0.25 (≈ 0.42 µM) | 32 (≈ 53.8 µM) | 32 (≈ 53.8 µM) | MIC [21]: 0.5 µg/mL (≈ 0.841 µM); MIC [22]: 0.031 µg/mL (≈ 0.0521 µM); MIC [23]: 32 µg/mL (≈ 53.8 µM); MIC [24]: 0.031 µg/mL (≈ 0.0521 µM); MIC [25]: 0.25 µg/mL (≈ 0.42 µM)
CCO/N=C(\C(=O)N[C@@H]1C(=O)N2C(C(=O)[O-])=C(CSc3nc(N)c4ccccc4[n+]3C)CS[C@H]12)c1csc(N)n1 [Example 29, 7-[(Z)-2-(2-aminothiazol-4-yl)-2-(ethoxyimino)acetamido]-3-(4-amino-1-methylbenzo-[5,6,e]pyrimidinium-2-yl)thiomethyl-3-cephem-4-carboxylate] | 16 (≈ 26.6 µM) | 0.016 (≈ 0.0266 µM) | 4 (≈ 6.66 µM) | ≤ 0.008 | 16 (≈ 26.6 µM) | ≤ 0.008 | 0.5 (≈ 0.832 µM) | 0.13 (≈ 0.216 µM) | 0.5 (≈ 0.832 µM) | 0.031 (≈ 0.0516 µM) | ≤ 0.008 | 0.25 (≈ 0.416 µM) | 0.063 (≈ 0.105 µM) | ≤ 0.008 | 0.25 (≈ 0.416 µM) | 0.13 (≈ 0.216 µM) | 0.5 (≈ 0.832 µM) | 0.5 (≈ 0.832 µM) | 16 (≈ 26.6 µM) | 16 (≈ 26.6 µM) | MIC [21]: 0.13 µg/mL (≈ 0.216 µM); MIC [22]: 0.13 µg/mL (≈ 0.216 µM); MIC [23]: 16 µg/mL (≈ 26.6 µM); MIC [24]: 0.13 µg/mL (≈ 0.216 µM); MIC [25]: 0.063 µg/mL (≈ 0.105 µM)
CCO/N=C(\C(=O)N[C@@H]1C(=O)N2C(C(=O)[O-])=C(CSc3nc(N)c4cccnc4[n+]3C)CS[C@H]12)c1csc(N)n1 [Example 31, 7-[(Z)-2-(2-aminothiazol-4-yl)-2-(ethoxyimino)acetamido]-3-(6-amino-3-methylpyrido[5,6,e]pyrimidinium-4-yl)thiomethyl-3-cephem-4-carboxylate] | 32 (≈ 53.2 µM) | 0.031 (≈ 0.0515 µM) | 4 (≈ 6.65 µM) | 0.016 (≈ 0.0266 µM) | 16 (≈ 26.6 µM) | ≤ 0.008 | 1 (≈ 1.66 µM) | 0.25 (≈ 0.415 µM) | 1 (≈ 1.66 µM) | 0.063 (≈ 0.105 µM) | 0.016 (≈ 0.0266 µM) | 0.25 (≈ 0.415 µM) | 0.13 (≈ 0.216 µM) | 0.016 (≈ 0.0266 µM) | 0.5 (≈ 0.831 µM) | 0.13 (≈ 0.216 µM) | 1 (≈ 1.66 µM) | 1 (≈ 1.66 µM) | 16 (≈ 26.6 µM) | 16 (≈ 26.6 µM) | MIC [21]: 0.13 µg/mL (≈ 0.216 µM); MIC [22]: 0.13 µg/mL (≈ 0.216 µM); MIC [23]: 32 µg/mL (≈ 53.2 µM); MIC [24]: 0.25 µg/mL (≈ 0.415 µM); MIC [25]: 0.13 µg/mL (≈ 0.216 µM)
C[n+]1c(SCC2=C(C(=O)[O-])N3C(=O)[C@@H](NC(=O)/C(=N\OC(C)(C)C(=O)O)c4csc(N)n4)[C@H]3SC2)nc(N)c2ccoc21 [Example 32, 7-[(Z)-2-(2-aminothiazol-4-yl)-2-(carboxyprop-2-oxyimino)acetamido]-3-(4-amino-1-methylfuro[5,6,e]pyrimidinium-2-yl-)thiomethyl-3-cephem-4-carboxylate] | 128 (≈ 197 µM) | 0.25 (≈ 0.385 µM) | 1 (≈ 1.54 µM) | ≤ 0.008 | > 128 | 0.016 (≈ 0.0247 µM) | 0.13 (≈ 0.2 µM) | 0.13 (≈ 0.2 µM) | 0.25 (≈ 0.385 µM) | 2 (≈ 3.08 µM) | ≤ 0.008 | 0.13 (≈ 0.2 µM) | 0.031 (≈ 0.0478 µM) | 0.016 (≈ 0.0247 µM) | 2 (≈ 3.08 µM) | 4 (≈ 6.17 µM) | 0.25 (≈ 0.385 µM) | 0.13 (≈ 0.2 µM) | 8 (≈ 12.3 µM) | 2 (≈ 3.08 µM) | MIC [21]: 2 µg/mL (≈ 3.08 µM); MIC [22]: 0.063 µg/mL (≈ 0.0971 µM); MIC [23]: 4 µg/mL (≈ 6.17 µM); MIC [24]: 0.063 µg/mL (≈ 0.0971 µM); MIC [25]: 0.13 µg/mL (≈ 0.2 µM)
CCO/N=C(\C(=O)N[C@@H]1C(=O)N2C(C(=O)[O-])=C(CSc3nc(N)c4ccoc4[n+]3C)CS[C@H]12)c1csc(N)n1 [Example 33, 7-[(Z)-2-(2-aminothiazol-4-yl)-2-(ethoxyimino)acetamido]-3-(4-amino-1-methylfuro-[5,6,e]pyrimidinium-2-yl)thiomethyl-3-cephem-4-carboxylate] | 32 (≈ 54.2 µM) | 0.031 (≈ 0.0525 µM) | 0.5 (≈ 0.846 µM) | ≤ 0.008 | 8 (≈ 13.5 µM) | ≤ 0.008 | 0.25 (≈ 0.423 µM) | 0.063 (≈ 0.107 µM) | 0.5 (≈ 0.846 µM) | 0.13 (≈ 0.22 µM) | ≤ 0.008 | 0.13 (≈ 0.22 µM) | 0.063 (≈ 0.107 µM) | ≤ 0.008 | 0.5 (≈ 0.846 µM) | 0.25 (≈ 0.423 µM) | 0.5 (≈ 0.846 µM) | 0.5 (≈ 0.846 µM) | 8 (≈ 13.5 µM) | 8 (≈ 13.5 µM) | MIC [21]: 0.25 µg/mL (≈ 0.423 µM); MIC [22]: 0.063 µg/mL (≈ 0.107 µM); MIC [23]: 16 µg/mL (≈ 27.1 µM); MIC [24]: 0.063 µg/mL (≈ 0.107 µM); MIC [25]: 0.063 µg/mL (≈ 0.107 µM)
CNc1cc(N)nc(SCC2=C(C(=O)[O-])N3C(=O)[C@@H](NC(=O)/C(=N\OC(C)(C)C(=O)O)c4csc(N)n4)[C@H]3SC2)[n+]1C [Example 35, 7-[(Z)-2-(2-aminothiazol-4-yl)-2-(carboxyprop-2-oxyimino)acetamido]-3-(4-amino-6-methylamino-1-methylpyrimidinium-2-yl)thiomethyl-3-cephem-4-carboxylate] | 128 (≈ 201 µM) | 0.25 (≈ 0.392 µM) | 2 (≈ 3.14 µM) | ≤ 0.008 | > 128 | 0.063 (≈ 0.0988 µM) | 0.063 (≈ 0.0988 µM) | 0.063 (≈ 0.0988 µM) | 0.13 (≈ 0.204 µM) | 2 (≈ 3.14 µM) | ≤ 0.008 | 0.063 (≈ 0.0988 µM) | 0.031 (≈ 0.0486 µM) | ≤ 0.008 | 1 (≈ 1.57 µM) | 4 (≈ 6.27 µM) | 0.13 (≈ 0.204 µM) | 0.031 (≈ 0.0486 µM) | 8 (≈ 12.5 µM) | 2 (≈ 3.14 µM) | MIC [21]: 2 µg/mL (≈ 3.14 µM); MIC [22]: 0.063 µg/mL (≈ 0.0988 µM); MIC [23]: 2 µg/mL (≈ 3.14 µM); MIC [24]: 0.063 µg/mL (≈ 0.0988 µM); MIC [25]: 0.5 µg/mL (≈ 0.784 µM)
